Data from patent US8314143B2, “Synthetic flavonoids and pharmaceutical compositions and therapeutic methods of treatment of HIV infection and other pathologies” (Florida A&M University, priority 2006, dated 2012).
Values joined by “and” are separate entries in the source; they are usually repeats but may differ in a detail not shown here. Identical values can stand only once.

How the values were obtained:
Assay type in all cases: cell-based
[1] = tested on: PC-3 cells; assay: Cytoxicity on PC-3 cells (drug inhibition, cell count); settings: for % Inhibition Mean / Cells (×10^4) Mean / % Inhibition / Cells (×10^4): Exp. Nov. 11 to Nov. 17, 2005; for % Inhibition / Cells (×10^4): single replicates
Text: The purified and identified analogs were subjected to in vitro biological testing.

[2] = tested on: MCF-7 cells; assay: Cytoxicity on MCF-7 cells (drug inhibition, cell count); design: Drug Inhibition on MCF-7 Cells / MCF-7 Mean (drug inhibition) / Drug inhibition on MCF-7 Cells Mean: unit not given here; settings: MCF-7 cells; for MCF-7 Mean (drug inhibition): Table 13 summary part; for Drug inhibition on MCF-7 Cells Mean: Table 14 summary part
Text: (§1) The purified and identified analogs were subjected to in vitro biological testing. […] These three congeners were further evaluated in H9 and PC3 cells. AZT was employed as a positive control in all of these experiments.

[3] = tested on: H-9 cells; assay: Cytoxicity on H-9 cells (drug inhibition, cell count); settings: for H-9 Mean (drug inhibition): Table 4 summary; for % Inhibition Mean / Cells (×10^4) Mean / % Inhibition / Cells (×10^4): Exp. Dec. 05 to Dec. 09, 2005; for % Inhibition / Cells (×10^4): single replicates
Text: as §1

[4] = 1 μg/ml, mean, Exp. Nov. 14 to Nov. 18, 2005
[5] = 1 μg/ml, mean, Exp. Sep. 08 to Sep. 12, 2005
[6] = 1 μg/ml, mean, Exp. Sep. 12 to Sep. 16, 2005
[7] = 1 μg/ml, mean, Exp. Sep. 26 to Sep. 30, 2005
[8] = 1 μg/ml, single replicates, Exp. Nov. 14 to Nov. 18, 2005
[9] = 1 μg/ml, single replicates, Exp. Sep. 08 to Sep. 12, 2005
[10] = 1 μg/ml, single replicates, Exp. Sep. 12 to Sep. 16, 2005
[11] = 1 μg/ml, single replicates, Exp. Sep. 26 to Sep. 30, 2005
[12] = 5 μg/ml, mean, Exp. Nov. 14 to Nov. 18, 2005
[13] = 5 μg/ml, mean, Exp. Sep. 08 to Sep. 12, 2005
[14] = 5 μg/ml, mean, Exp. Sep. 12 to Sep. 16, 2005
[15] = 5 μg/ml, mean, Exp. Sep. 26 to Sep. 30, 2005
[16] = 5 μg/ml, single replicates, Exp. Nov. 14 to Nov. 18, 2005
[17] = 5 μg/ml, single replicates, Exp. Sep. 08 to Sep. 12, 2005
[18] = 5 μg/ml, single replicates, Exp. Sep. 12 to Sep. 16, 2005
[19] = 5 μg/ml, single replicates, Exp. Sep. 26 to Sep. 30, 2005
[20] = 10 μg/ml, mean, Exp. Nov. 14 to Nov. 18, 2005
[21] = 10 μg/ml, mean, Exp. Sep. 08 to Sep. 12, 2005
[22] = 10 μg/ml, mean, Exp. Sep. 12 to Sep. 16, 2005
[23] = 10 μg/ml, mean, Exp. Sep. 26 to Sep. 30, 2005
[24] = 10 μg/ml, single replicates, Exp. Nov. 14 to Nov. 18, 2005
[25] = 10 μg/ml, single replicates, Exp. Sep. 08 to Sep. 12, 2005
[26] = 10 μg/ml, single replicates, Exp. Sep. 12 to Sep. 16, 2005
[27] = 10 μg/ml, single replicates, Exp. Sep. 26 to Sep. 30, 2005

Q: Which results are given for `Cc1cn([C@H]2C[C@H](N=[N+]=[N-])[C@@H](CO)O2)c(=O)[nH]c1=O` [AZT, reference compound]?
A: Drug Inhibition on PC-3 cells ([1]; 1 μg/ml, Table 7): 17.27; Drug Inhibition on PC-3 cells ([1]; 1 μg/ml, Table 10): 13.69; % Inhibition Mean ([1]; 1 μg/ml): 13.69%; Cells (×10^4) Mean ([1]; 1 μg/ml): 84.58 ×10^4; % Inhibition ([1]; 1 μg/ml): 14.29% and 12.76% and 14.03%; Cells (×10^4) ([1]; 1 μg/ml): 84.0 ×10^4 and 85.5 ×10^4 and 84.3 ×10^4; Drug Inhibition on PC-3 cells ([1]; 5 μg/ml, Table 7): 43.23; Cells (×10^4) Mean ([1]; 5 μg/ml): 17.33 ×10^4; Cells (×10^4) ([1]; 5 μg/ml): 70.5 ×10^4 and 72.3 ×10^4 and 71.3 ×10^4; Drug Inhibition on PC-3 cells ([1]; 10 μg/ml, Table 7): 59.67; Drug Inhibition on PC-3 cells ([1]; 10 μg/ml, Table 10): 37.16; % Inhibition Mean ([1]; 10 μg/ml): 37.16%; Cells (×10^4) Mean ([1]; 10 μg/ml): 61.58 ×10^4; % Inhibition ([1]; 10 μg/ml): 37.24% and 37.50% and 36.73%; Cells (×10^4) ([1]; 10 μg/ml): 61.5 ×10^4 and 61.3 ×10^4 and 62.0 ×10^4; Drug Inhibition on MCF-7 Cells ([2]; 1 μg/ml, Table 8 summary): 6.92; Drug Inhibition on MCF-7 Cells ([2]; 1 μg/ml, Table 12 summary): 26.55; MCF-7 Mean (drug inhibition) ([2]; 1 μg/ml): 25.77; Drug inhibition on MCF-7 Cells Mean ([2]; 1 μg/ml): 21.53; % Inhibition Mean [2, 4]: 6.92%; Cells (×10^4) Mean [2, 4]: 53.83 ×10^4; % Inhibition Mean [2, 5]: 25.77%; Cells (×10^4) Mean [2, 5]: 52.33 ×10^4; % Inhibition Mean [2, 6]: 21.53%; Cells (x10^4) Mean [2, 6]: 45.25 x10^4; % Inhibition Mean [2, 7]: 26.55%; Cells (×10^4) Mean [2, 7]: 36.42 ×10^4; % Inhibition [2, 8]: 8.36% and 4.47% and 7.93%; Cells (×10^4) [2, 8]: 53.0 ×10^4 and 55.3 ×10^4 and 53.3 ×10^4; % Inhibition [2, 9]: 27.66% and 23.76% and 25.89%; Cells (×10^4) [2, 9]: 51.0 ×10^4 and 53.8 ×10^4 and 52.3 ×10^4; % Inhibition [2, 10]: 22.83% and 20.23% and 21.53%; Cells (x10^4) [2, 10]: 44.5 x10^4 and 46.0 x10^4 and 45.3 x10^4; % Inhibition [2, 11]: 28.40% and 25.88% and 25.38%; Cells (×10^4) [2, 11]: 35.5 ×10^4 and 36.8 ×10^4 and 37.0 ×10^4; Drug Inhibition on MCF-7 Cells ([2]; 5 μg/ml, Table 8 summary): 38.62; Drug Inhibition on MCF-7 Cells ([2]; 5 μg/ml, Table 12 summary): 46.86; MCF-7 Mean (drug inhibition) ([2]; 5 μg/ml): 39.36; Drug inhibition on MCF-7 Cells Mean ([2]; 5 μg/ml): 50.43; % Inhibition Mean [2, 12]: 38.62%; Cells (×10^4) Mean [2, 12]: 35.50 ×10^4; % Inhibition Mean [2, 13]: 39.36%; Cells (×10^4) Mean [2, 13]: 42.75 ×10^4; % Inhibition Mean [2, 14]: 50.43%; Cells (x10^4) Mean [2, 14]: 28.58 x10^4; % Inhibition Mean [2, 15]: 46.86%; Cells (×10^4) Mean [2, 15]: 26.35 ×10^4; % Inhibition [2, 16]: 39.91% and 40.35% and 35.59%; Cells (×10^4) [2, 16]: 34.8 ×10^4 and 34.5 ×10^4 and 37.3 ×10^4; % Inhibition [2, 17]: 40.07% and 37.94%; Cells (×10^4) [2, 17]: 42.3 ×10^4 (2×) and 43.8 ×10^4; % Inhibition [2, 18]: 47.98% and 51.88% and 51.45%; Cells (x10^4) [2, 18]: 30.0 x10^4 and 27.8 x10^4 and 28.0 x10^4; % Inhibition [2, 19]: 49.98% and 45.04% and 45.55%; Cells (×10^4) [2, 19]: 24.8 ×10^4 and 27.3 ×10^4 and 27.0 ×10^4; Drug Inhibition on MCF-7 Cells ([2]; 10 μg/ml, Table 8 summary): 61.1; Drug Inhibition on MCF-7 Cells ([2]; 10 μg/ml, Table 12 summary): 65.21; MCF-7 Mean (drug inhibition) ([2]; 10 μg/ml): 57.45; Drug inhibition on MCF-7 Cells Mean ([2]; 10 μg/ml): 65.03; % Inhibition Mean [2, 20]: 61.10%; Cells (×10^4) Mean [2, 20]: 22.50 ×10^4; % Inhibition Mean [2, 21]: 57.45%; Cells (×10^4) Mean [2, 21]: 30.00 ×10^4; % Inhibition Mean [2, 22]: 65.03%; Cells (x10^4) Mean [2, 22]: 20.17 x10^4; % Inhibition Mean [2, 23]: 65.21%; Cells (×10^4) Mean [2, 23]: 17.25 ×10^4; % Inhibition [2, 24]: 61.53% and 60.23%; Cells (×10^4) [2, 24]: 22.3 ×10^4 (2×) and 23.0 ×10^4; % Inhibition [2, 25]: 57.45%; Cells (×10^4) [2, 25]: 30.0 ×10^4; % Inhibition [2, 26]: 69.65% and 62.72%; Cells (x10^4) [2, 26]: 17.5 x10^4 and 21.5 x10^4 (2×); % Inhibition [2, 27]: 65.21% and 63.19% and 67.23%; Cells (×10^4) [2, 27]: 17.3 ×10^4 and 18.3 ×10^4 and 16.3 ×10^4; Cells (×10^4) Mean ([2]; drug 1 μg/ml, mean of replicates): 43.08 ×10^4; % Inhibition Mean ([2]; drug 1 μg/ml, mean of replicates, vs 2% DMSO): 15.38%; Cells (×10^4) ([2]; drug 1 μg/ml, single replicate count): 43.3 ×10^4 (2×) and 42.8 ×10^4; % Inhibition ([2]; drug 1 μg/ml, single replicate, vs 2% DMSO): 15.06% and 16.04%; Cells (×10^4) Mean ([2]; drug 5 μg/ml, mean of replicates): 32.08 ×10^4; % Inhibition Mean ([2]; drug 5 μg/ml, mean of replicates, vs 2% DMSO): 36.99%; Cells (×10^4) ([2]; drug 5 μg/ml, single replicate count): 31.5 ×10^4 and 32.3 ×10^4 and 32.5 ×10^4; % Inhibition ([2]; drug 5 μg/ml, single replicate, vs 2% DMSO): 38.13% and 36.66% and 36.17%; Cells (×10^4) Mean ([2]; drug 10 μg/ml, mean of replicates): 24.08 ×10^4; % Inhibition Mean ([2]; drug 10 μg/ml, mean of replicates, vs 2% DMSO): 52.7%; Cells (×10^4) ([2]; drug 10 μg/ml, single replicate count): 22.0 ×10^4 and 25.5 ×10^4 and 24.8 ×10^4; % Inhibition ([2]; drug 10 μg/ml, single replicate, vs 2% DMSO): 56.79% and 49.92% and 51.39%; H-9 Mean (drug inhibition) ([3]; 1 μg/ml): 18.74; % Inhibition Mean ([3]; 1 μg/ml): 18.74%; Cells (×10^4) Mean ([3]; 1 μg/ml): 40.83 ×10^4; % Inhibition ([3]; 1 μg/ml): 17.91% and 25.37% and 12.94%; Cells (×10^4) ([3]; 1 μg/ml): 41.3 ×10^4 and 37.5 ×10^4 and 43.8 ×10^4; H-9 Mean (drug inhibition) ([3]; 5 μg/ml): 38.47; % Inhibition Mean ([3]; 5 μg/ml): 38.47%; Cells (×10^4) Mean ([3]; 5 μg/ml): 30.92 ×10^4; % Inhibition ([3]; 5 μg/ml): 39.30% and 40.30% and 35.82%; Cells (×10^4) ([3]; 5 μg/ml): 30.5 ×10^4 and 30.0 ×10^4 and 32.3 ×10^4; H-9 Mean (drug inhibition) ([3]; 10 μg/ml): 49.75; % Inhibition Mean ([3]; 10 μg/ml): 49.75%; Cells (×10^4) Mean ([3]; 10 μg/ml): 25.25 ×10^4; % Inhibition ([3]; 10 μg/ml): 48.26% and 50.25% and 50.75%; Cells (×10^4) ([3]; 10 μg/ml): 26.0 ×10^4 and 25.0 ×10^4 and 24.8 ×10^4
